This experiment has as its system STAT5 Y694 phosphorylation. Nature of the experiment: Protein electrophoresis and blotting of STAT5 Y694 phosphorylation in Jurkat cells stimulated with human interferon beta. As to conditions: for Example of Effect 1: Inhibiting Ability (Protein Electrophoresis and Blotting): observed pSTAT5 bands at 10 μM and 100 μM; for Inhibiting Ratio (0% for vehicle control): 1 hour pretreatment, 20 ng/ml human interferon beta 30 minutes, pSTAT5/GAPDH. It counts as cell-based. How it is done:
Example of Effect 1: Protein Electrophoresis and Blotting Experiment
Standard protein electrophoresis and chemiluminescence imaging equipment (Bio-Rad);
Protein lysate RIPA (Lianke Biological; Cat #WB020); Western blot transfer membrane PVDF (Millipore; Cat #IPVH00010);
Jurkat cells (ATCC American Standard Culture Center, TIB152) were cultured in a 6-well plate at a density of 1×10^6/ml with RPMI medium […] 10% fetal bovine serum in a humidified incubator at 37° C. and maintained at 5% carbon dioxide overnight. On the second day, the cells were pretreated with compounds of different concentrations (the mother liquor of the compound prepared by dimethyl sulfoxide was diluted in the medium at the required concentration) for 1 hour, and then stimulated with 20 ng/ml human interferon beta for 30 minutes, it was mixed thoroughly and then placed in an incubator at 37° C. environment. […] Then an appropriate volume of RIPA Lysis Solution was added, it was mixed well, and placed on ice for 1 hour, inverted and mixed several times in the middle. Then, the cell lysate was centrifuged at 12000 rpm at 4° C. for 10 minutes, and the supernatant was transferred to another test tube, aliquoted and stored at −20° C. until use.
An equal volume of protein lysate was mixed with an appropriate 6-fold protein loading buffer (Biyun Tian Biochemical Company P0015F), and the mixture was heated at 95 degrees for 10 minutes, after full denaturation, the protein sample was added to the polyacrylamide gel (self-made, raw material purchased from Soleibao Biotechnology Company A1010, 30% acrylamide solution), and electrophoresis was performed at the appropriate voltage for 1 hour, until the strips were fully separated. It was transferred to a polyvinylidene fluoride membrane according to standard procedures, and blocked with 5% skim milk for 1 hour, and the specified antibody was added, and it was diluted 1:1000 in 3% bovine serum albumin, and it was incubated overnight for four degrees. It was thoroughly rinsed, incubated with the secondary antibody, exposed to chemiluminescence and signals were collected. ImageJ software was used to quantify the obtained chemiluminescence results. The same area was selected, the gray values of STAT5 phosphorylation band and GAPDH band of each sample were analyzed, and the ratio of pSTAT5/GAPDH level was calculated. The value of the solvent-treated sample was 100%, and the remaining samples were converted into relative data in the same proportion, that is, the percentage corresponding to the solvent sample. […] The solvent control group was the same as the test compound group except that DMSO was used instead of the DMSO solution of the test compound. N1 (Pimozide) was a specific positive control.

For `CC(C)(C)c1ccc(CC(=O)N2CCC(n3c(=O)[nH]c4cccc(C(F)(F)F)c43)CC2)cc1` [GEN1-115, 1-(1-(2-(4-(tert-butyl)phenyl)acetyl)piperidin-4-yl)-7-(trifluoromethyl)-1^1H-benzo[d]imidazol-2(3H)-one], the “Example of Effect 1: Inhibiting Ability (Protein Electrophoresis and Blotting)” value (“Example of Effect 1: Inhibiting Ability” for short) is given as “+”.

As to `O=C(Cc1ccncc1)N1CCC(n2c(=O)[nH]c3ccccc32)CC1` [Example X3, 1-(1-(2-(pyridin-4-yl)acetyl)piperidin-4-yl)-1H-benzo[d]imidazole-2(3H)-one], the “Example of Effect 1: Inhibiting Ability” value is given as “−”. Besides, the “Inhibiting Ratio (0% for vehicle control)” value (1 μM) came to 17.4%. In addition, the “Inhibiting Ratio (0% for vehicle control)” value (10 μM) is reported as 4.7%. Also, the “Inhibiting Ratio (0% for vehicle control)” value (100 μM) is recorded as 87.5%.

With `CC(C)(C)c1ccc2[nH]c(=O)n(C3CCN(C(=O)Cc4ccc(C(F)(F)F)cc4)CC3)c2c1` [GEN1-088, 6-(tert-butyl)-1-(1-(2-(4-(trifluoromethyl)phenyl)acetyl)piperidin-4-yl)-1H-benzo[d]imidazol-2(3H)-one], the “Example of Effect 1: Inhibiting Ability” value is given as “+”.

Take `O=C(Cc1ccccc1C(F)(F)F)N1CCC(n2c(=O)[nH]c3ccccc32)CC1` [GEN1-030, 1-(1-(2-(2-(trifluoromethyl)phenyl)acetyl)piperidin-4-yl)-1H-benzo[d]imidazole-2(3H)-one]: the “Example of Effect 1: Inhibiting Ability” value is recorded as “−”. The “Inhibiting Ratio (0% for vehicle control)” value (1 μM) came out at 15.7%. Besides, the “Inhibiting Ratio (0% for vehicle control)” value (10 μM) is given as 19.4%. In addition, the “Inhibiting Ratio (0% for vehicle control)” value (100 μM) was found to be 94.0%.

For the compound `O=c1oc2ccccc2n1-c1ccn2c(=O)cc(Cc3ccc(F)cc3)cc2c1` [Example P9, 3-(2-(4-fluorobenzyl)-4-oxo-4H-quinazine-8-yl)benzo[d]oxazole-2(3H)-one], the “Example of Effect 1: Inhibiting Ability” value is on record as “−”.

On to `O=C(Cc1ccc(C(F)(F)F)cc1)N1CCC(n2c(=O)[nH]c3cccnc32)CC1` [GEN1-044, 3-(1-(2-(4-(trifluoromethyl)phenyl)acetyl)piperidin-4-yl)-1H-imidazo[4,5-b]pyridin-2(3H)-one], for which the “Example of Effect 1: Inhibiting Ability” value is listed as “+”.

As to `O=C(N1CCC(n2c(=O)[nH]c3cccc(C(F)(F)F)c32)CC1)C1(c2ccc(C(F)(F)F)cc2)CC1` [GEN1-146, 7-(trifluoromethyl)-1-(1-(1-(4-(trifluoromethyl)phenyl)cyclopropane-1-carbonyl)piperidin-4-yl)-1,3-dihydro-2H-benzo[d]imidazol-2-one], the “Example of Effect 1: Inhibiting Ability” value is given as “+”.

Regarding `O=C(Cc1ccc(C(F)(F)F)cc1)NCC1Cc2cccc3[nH]c(=O)n(c23)C1` (centres unmarked) [GEN1-065], the “Example of Effect 1: Inhibiting Ability” value is on record as “−”.

For `O=C(CCc1ccc(C(F)(F)F)cc1)N1CCC(n2c(=O)[nH]c3ccccc32)CC1` [GEN1-018, 1-(1-(3-(4-(trifluoromethyl)phenyl)propionyl)piperidin-4-yl)-1H-benzo[d]imidazole-2(3H)-one], the “Example of Effect 1: Inhibiting Ability” value is listed as “+”. Also, the “Inhibiting Ratio (0% for vehicle control)” value (1 μM) is reported as −36.5%. Further, where the note is “10 μM”, the “Inhibiting Ratio (0% for vehicle control)” value is on record as −6.2%. Moreover, the “Inhibiting Ratio (0% for vehicle control)” value (100 μM) is reported as 98.6%.

For the compound `O=C(Cc1ccc(C(F)(F)F)cc1)N1CCC(n2c(=O)n(O)c3ccccc32)CC1` [GEN1-059, 1-hydroxy-3-(1-(2-(4-(trifluoromethyl)phenyl)acetyl)piperidin-4-yl)-1H-benzo[d]imidazol-2(3H)-one], the “Example of Effect 1: Inhibiting Ability” value is “−”.

With `O=C(Cc1ccc(C(F)(F)F)cc1)N1CCC(n2c(=O)[nH]c3ccc(C(F)(F)F)cc32)CC1` [GEN1-009, 6-(trifluoromethyl)-1-(1-(2-(4-(trifluoromethyl)phenyl)acetyl)piperidin-4-yl)-1H-benzo[d]imidazole-2(3H)-one], the “Example of Effect 1: Inhibiting Ability” value is given as “+”.

With `O=C(Cc1ccc(C(F)(F)F)cc1)N1CCC(n2c(=O)oc3ccccc32)CC1` [Example P8, 3-(1-(2-(4-(trifluoromethyl)phenyl)acetyl)piperidin-4-yl)benzo[d]oxazole-2(3H)-one], the “Example of Effect 1: Inhibiting Ability” value is listed as “−”.

`COc1ccc(CC(=O)N2CCC(n3c(=O)[nH]c4ccccc43)CC2)cc1` [GEN1-070, 1-(1-(2-(4-methoxyphenyl)acetyl)piperidin-4-yl)-1H-benzo[d]imidazol-2(3H)-one]: the “Example of Effect 1: Inhibiting Ability” value is given as “−”.

In the case of `COc1cccc2c1[nH]c(=O)n2C1CCN(C(=O)Cc2ccc(C(F)(F)F)cc2)CC1` [GEN1-003, 4-methoxy-1-(1-(2-(4-(trifluoromethyl)phenyl)acetyl)piperidin-4-yl)-1H-benzo[d]imidazole-2(3H)-one], the “Example of Effect 1: Inhibiting Ability” value was “+”. The “Inhibiting Ratio (0% for vehicle control)” value (1 μM) is on record as −10.8%. Besides, the “Inhibiting Ratio (0% for vehicle control)” value (10 μM) came out at 22.2%. Moreover, the “Inhibiting Ratio (0% for vehicle control)” value (100 μM) turned out to be 94.1%.

Take `O=C(Cc1ccc(C(F)(F)F)nc1)N1CCC(n2c(=O)[nH]c3ccccc32)CC1` [GEN1-027, 1-(1-(2-(6-(trifluoromethyl)pyridin-3-yl)acetyl)piperidin-4-yl)-1H-benzo[d]imidazole-2(3H)-one]: the “Example of Effect 1: Inhibiting Ability” value was “+”.

In the case of `O=C1Nc2ccccc2C1C1CCN(C(=O)Cc2ccc(C(F)(F)F)cc2)CC1` (centres unmarked) [GEN1-051, 3-(1-(2-(4-(trifluoromethyl)phenyl)acetyl)piperidin-4-yl)indol-2-one], the “Example of Effect 1: Inhibiting Ability” value is reported as “+”.

Regarding `N#CNc1nc2ccccc2n1C1CCN(C(=O)Cc2ccc(C(F)(F)F)cc2)CC1` [GEN1-061], the “Example of Effect 1: Inhibiting Ability” value is recorded as “+”.

As to `CN(C)c1ccc(CC(=O)N2CCC(n3c(=O)[nH]c4ccccc43)CC2)cc1` [GEN1-097, 1-(1-(2-(4-(dimethylamino)phenyl)acetyl)piperidin-4-yl)-1H-benzo[d]imidazol-2(3H)-one], the “Example of Effect 1: Inhibiting Ability” value is listed as “+”.

As to `CCC(=O)N1CCC(n2c(=O)oc3ccccc32)CC1` [Example P1, 3-(1-propionylpiperidin-4-yl)benzo[d]oxazole-2(3H)-one], the “Example of Effect 1: Inhibiting Ability” value is “−”.

`O=C(Cc1ccc(N2CCOCC2)cc1)N1CCC(n2c(=O)[nH]c3ccccc32)CC1` [GEN1-034, 1-(1-(2-(4-morpholinophenyl)acetyl)piperidin-4-yl)-1H-benzo[d]imidazole-2(3H)-one]: the “Example of Effect 1: Inhibiting Ability” value is given as “−”.

As for `O=C(CC12CC3CC(CC(C3)C1)C2)N1CCC(n2c(=O)[nH]c3ccccc32)CC1` [GEN1-098, 1-(1-(2-(adamantan-1-yl)acetyl)piperidin-4-yl)-1H-benzo[d]imidazol-2(3H)-one], the “Example of Effect 1: Inhibiting Ability” value is given as “+”.

For `O=C(Cc1ccc(C(F)(F)F)cc1)N1CCC(n2c(=O)c(=O)[nH]c3ccccc32)CC1` [GEN1-127, 1-(1-(2-(4-(trifluoromethyl)phenyl)acetyl)piperidin-4-yl)-1,4-dihydroquinoxaline-2,3-dione], the “Example of Effect 1: Inhibiting Ability” value is given as “+”.

As for `Cc1ccc(CC(=O)N2CCC(n3c(=O)[nH]c4ccccc43)CC2)cc1` [Example X7, 1-(1-(2-(p-tolyl)acetyl)piperidin-4-yl)-1H-benzo[d]imidazole-2(3H)-one], the “Example of Effect 1: Inhibiting Ability” value is “−”. Further, the “Inhibiting Ratio (0% for vehicle control)” value (1 μM) is −27.9%. Further, the “Inhibiting Ratio (0% for vehicle control)” value (10 μM) is on record as −13.6%. The “Inhibiting Ratio (0% for vehicle control)” value (100 μM) came to 88.5%.

Source of the values: US20230099441A1, “HETEROCYCLIC COMPOUND, APPLICATION THEREOF, AND COMPOSITION CONTAINING SAME” (GenEros Biopharma Ltd., priority 2019, published 2023).
